These results are taken from patent publication US7211572B2 (Japan Tobacco Inc., priority 2003, dated 2007).

pIC50: −log10 of the molar value. Structures can show the parent of a compound that is named as a salt. Where only a bound is given, the exact number is not on record here.

This test addresses T1, HIV integrase (Human immunodeficiency virus type 1 group M subtype B, UniProt P12497, F1332H).
T1 construct: HIV integrase full length gene; made in house; host or cells: Escherichia coli BL21(DE3), plasmid pET21a-INH
The test is described as follows: Determination of enzyme (HIV integrase) inhibitory activity. The conditions noted are these: recombinant HIV integrase (F185H), strand transfer ELISA, absorbance at 450 nm. The class given is biochemical. Put shortly: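 Full-length integrase with F185H, expressed in E. coli and purified, was reacted for 60 min at 37 °C with compound and biotinylated donor DNA bound to streptavidin plates. Target DNA was added for 10 min, then anti-digoxigenin-peroxidase detection at A450; IC50 from % inhibition versus enzyme-free blank.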
For orientation: ELISA stands for enzyme-linked immunosorbent assay.
By pIC50 is commonly meant the IC50 on a negative log10 scale, so that one unit is a factor of ten. With `O=C1c2c(O)c(=O)c(-c3cnccn3)cn2CCN1Cc1ccc(Cl)c(Cl)c1` [Example 383, 2-(3,4-dichlorobenzyl)-9-hydroxy-7-(pyrazin-2-yl)-3,4-dihydro-2H-pyrido[1,2-a]pyrazine-1,8-dione hydrochloride], the pIC50 is 7.00 to 8.00. With `O=C(O)c1cc(=O)c(O)c2n1CCN(Cc1ccc(Cl)c(Cl)c1)C2=O` [Example 6, 2-(3,4-dichlorobenzyl)-9-hydroxy-1,8-dioxo-1,3,4,8-tetrahydro-2H-pyrido[1,2-a]pyrazine-6-carboxylic acid], the pIC50 was 7.00 to 8.00.

In the case of `O=c1c(-c2ccncc2)cn2ccn(Cc3ccc(F)cc3)c(=O)c2c1O` [Example 341, 2-(4-fluorobenzyl)-9-hydroxy-7-(pyridin-4-yl)-2H-pyrido[1,2-a]pyrazine-1,8-dione hydrochloride], the pIC50 is over 8.00. To `O=C1c2c(O)c(=O)ccn2CCN1Cc1ccc(Cl)cc1` [Example 45, 2-(4-chlorobenzyl)-9-hydroxy-3,4-dihydro-2H-pyrido[1,2-a]pyrazine-1,8-dione] belongs 7.00 to 8.00; to `O=C(O)c1cc(F)ccc1CN1CCn2cc(-c3nccs3)c(=O)c(O)c2C1=O` [Example 368, 5-fluoro-2-[9-hydroxy-1,8-dioxo-7-(thiazol-2-yl)-1,3,4,8-tetrahydro-pyrido[1,2-a]pyrazin-2-ylmethyl]benzoic acid hydrochloride], 7.00 to 8.00. To `O=c1c(-c2ccncc2)cn2ccn(Cc3cccc(Cl)c3)c(=O)c2c1O` [Example 116, 2-(3-chlorobenzyl)-9-hydroxy-7-(pyridin-4-yl)-2H-pyrido[1,2-a]pyrazine-1,8-dione hydrochloride] belongs over 8.00; to `CC(C)N(C)C(=O)c1cc(=O)c(O)c2n1CCN(Cc1ccc(Cl)c(Cl)c1)C2=O` [Example 62, N-isopropyl-N-methyl-2-(3,4-dichlorobenzyl)-9-hydroxy-1,8-dioxo-1,3,4,8-tetrahydro-2H-pyrido[1,2-a]pyrazine-6-carboxamide], 7.00 to 8.00; to `O=C1c2c(O)c(=O)c(NS(=O)(=O)Cc3ccccc3)cn2CCN1Cc1ccc(F)c(Cl)c1` [Example 419, N-[2-(3-chloro-4-fluorobenzyl)-9-hydroxy-1,8-dioxo-1,3,4,8-tetrahydro-2H-pyrido[1,2-a]pyrazin-7-yl]benzylsulfonamide], over 8.00. To `O=C(OCc1ccccc1)C(Cc1ccccc1)c1cc(=O)c(O)c2n1CCN(Cc1ccc(Cl)c(Cl)c1)C2=O` (stereo not shown) [Example 82, benzyl 2-[2-(3,4-dichlorobenzyl)-9-hydroxy-1,8-dioxo-1,3,4,8-tetrahydro-2H-pyrido[1,2-a]pyrazin-6-yl]-3-phenylpropionate] belongs 7.00 to 8.00. As for `O=C(c1ccccc1)c1cn2ccn(Cc3cccc(Cl)c3)c(=O)c2c(O)c1=O` [Example 137, 7-benzoyl-2-(3-chlorobenzyl)-9-hydroxy-2H-pyrido[1,2-a]pyrazine-1,8-dione hydrochloride], the pIC50 was 7.00 to 8.00. Next, `CC(C)c1cc(=O)c(O)c2n1CCN(Cc1ccc(Cl)c(Cl)c1)C2=O` [Example 46, 2-(3,4-dichlorobenzyl)-9-hydroxy-6-isopropyl-3,4-dihydro-2H-pyrido[1,2-a]pyrazine-1,8-dione]: 7.00 to 8.00; `CC(=O)Nc1cc(F)ccc1CN1CCn2cc(-c3nccs3)c(=O)c(O)c2C1=O` [Example 366, N-{5-fluoro-2-[9-hydroxy-1,8-dioxo-7-(thiazol-2-yl)-1,3,4,8-tetrahydro-pyrido[1,2-a]pyrazin-2-ylmethyl]phenyl}acetamide hydrochloride]: 6.00 to 7.00; `CC(=O)OCC(C)(C)C(=O)c1cn2ccn(Cc3cccc(Cl)c3)c(=O)c2c(O)c1=O` [Example 229, 3-[2-(3-chlorobenzyl)-9-hydroxy-1,8-dioxo-1,8-dihydro-2H-pyrido[1,2-a]pyrazin-7-yl]-2,2-dimethyl-3-oxopropyl acetate hydrochloride]: over 8.00. Next, `Nc1cn2ccn(Cc3cccc(Cl)c3)c(=O)c2c(O)c1=O` [Example 161, 7-amino-2-(3-chlorobenzyl)-9-hydroxy-2H-pyrido[1,2-a]pyrazine-1,8-dione hydrochloride]: 7.00 to 8.00; `O=C(Nc1cn2c(c(O)c1=O)C(=O)N(Cc1cccc(Cl)c1F)CC2)c1cccnc1` [Example 352, N-[2-(3-chloro-2-fluorobenzyl)-9-hydroxy-1,8-dioxo-1,3,4,8-tetrahydro-2H-pyrido[1,2-a]pyrazin-7-yl)nicotinamide hydrochloride]: 7.00 to 8.00; `O=C1c2c(O)c(=O)c(-c3nccs3)cn2CCN1CCCc1ccc(F)cc1` [Example 314, 2-[3-(4-fluorophenyl)propyl]-9-hydroxy-7-(thiazol-2-yl)-3,4-dihydro-2H-pyrido[1,2-a]pyrazine-1,8-dione]: 7.00 to 8.00. On to `O=C1c2c(O)c(=O)c(-c3nccs3)cn2CCN1CCCc1ccc(Cl)c(F)c1` [Example 313, 2-[3-(4-chloro-3-fluorophenyl)propyl]-9-hydroxy-7-(thiazol-2-yl)-3,4-dihydro-2H-pyrido[1,2-a]pyrazine-1,8-dione], for which the pIC50 is 7.00 to 8.00. Next, `COc1ccc(CN2CCn3ccc(=O)c(O)c3C2=O)cc1Cl` [Example 73, 2-(3-chloro-4-methoxybenzyl)-9-hydroxy-3,4-dihydro-2H-pyrido[1,2-a]pyrazine-1,8-dione]: 7.00 to 8.00. To `O=C1c2c(O)c(=O)ccn2CCN1Cc1ccc(F)cc1` [Example 42, 2-(4-fluorobenzyl)-9-hydroxy-3,4-dihydro-2H-pyrido[1,2-a]pyrazine-1,8-dione] belongs 7.00 to 8.00; to `CCC(C)(C)C(=O)c1cn2ccn(Cc3ccc(F)cc3)c(=O)c2c(O)c1=O` [Example 382, 7-(2,2-dimethylbutyryl)-2-(4-fluorobenzyl)-9-hydroxy-2H-pyrido[1,2-a]pyrazine-1,8-dione hydrochloride], 7.00 to 8.00. Next, `O=C1c2c(O)c(=O)c(-c3ccccn3)cn2CCN1Cc1ccc(Cl)c(Cl)c1` [Example 373, 2-(3,4-dichlorobenzyl)-9-hydroxy-7-(pyridin-2-yl)-3,4-dihydro-2H-pyrido[1,2-a]pyrazine-1,8-dione trifluoroacetate]: over 8.00; `Cn1ncnc1-c1cn2ccn(Cc3ccc(F)c(Cl)c3)c(=O)c2c(O)c1=O` [Example 405, 2-(3-chloro-4-fluorobenzyl)-9-hydroxy-7-(2-methyl-2H-1,2,4-triazol-3-yl)-2H-pyrido[1,2-a]pyrazine-1,8-dione hydrochloride]: over 8.00; `CC(C)c1cn(Cc2cccc(Cl)c2)c(=O)c2c(O)c(=O)ccn12` [Example 10, 2-(3-chlorobenzyl)-9-hydroxy-4-isopropyl-2H-pyrido[1,2-a]pyrazine-1,8-dione hydrochloride]: 7.00 to 8.00. As to `CN(C(=O)Cn1ccn2ccc(=O)c(O)c2c1=O)c1ccccc1` [Example 226, 2-(9-hydroxy-1,8-dioxo-1,8-dihydro-pyrido[1,2-a]pyrazin-2-yl)-N-methyl-N-phenylacetamide hydrochloride], the negative logarithm of the IC50 (pIC50) is 6.00 to 7.00. To `CS(=O)(=O)c1ccc(CNC(=O)c2cn3c(c(O)c2=O)C(=O)N(Cc2ccc(F)cc2)CC3)cc1` [Example 421, N-(4-methanesulfonylbenzyl)-2-(4-fluorobenzyl)-9-hydroxy-1,8-dioxo-1,3,4,8-tetrahydro-2H-pyrido[1,2-a]pyrazine-7-carboxamide hydrochloride] belongs 7.00 to 8.00.
